Positions of bridges follow the written chain, without caps; N, C: chain ends. Non-standard residues stand in square brackets, D forms with d. Residues, ends and D or L forms follow the SMILES beside them. *: point of attachment. Ileψ(thiazoline)Cys = CC[C@H](C)[C@H](N)C1=N[C@H](C(=O)*)CS1; dOrn = NCCC[C@@H](N)C(=O)O Some results are limits rather than exact numbers.

Data set [1] concerns vancomycin-resistant Enterococcus (VRE). As to the kind of experiment: VRE intestinal colonization (infection) model. Type of data set: in vivo, CF-1 mice. As for the experimental part:
The tubes containing fresh stool samples, collected from individual mice, were weighted, so that the weight of the feces could be deduced. Then, all the feces were diluted in […] of sterile saline, homogenized with a pestle, and serially diluted 10-fold in 0.1% peptone water. Finally, […] of each dilution were inoculated on the following media: MRS agar for detection of total lactic acid bacteria (LAB), Rogosa SL agar for selective detection of Lactobacillus spp., Reinforced Clostridium Medium (RCM) for quantification of total anaerobic and mesophilic bacteria, Baird-Parker agar (BPA) for selective detection of Staphylococcus spp., MacConkey agar for selective enumeration of Enterobacteriaceae, Enterococcosel agar for selective quantification of total Enterococcus spp. and finally Enterococcosel agar+20 μg/ml of vancomycin (Sigma) for detection and enumeration of VRE. A volume of 100 μl of the undiluted sample was also plated. MRS, Rogosa and RCM plates were incubated in anaerobic jars at 37° C. for 72 h while BPA, MacConkey and both Enterococcosel agar plates were incubated under aerobic conditions at 37° C. for 48 h. When negative results were obtained for Enterococcosel agar+20 μg/ml of vancomycin after 48 h of incubation, the plates were allowed to incubate for another 24 h. For statistical purposes, a value in CFU per gram that was based upon the weight of individual specimens was assigned for faeces without microorganisms.
A VRE intestinal colonization (infection) model was adapted from Donskey et al. 25-30 g CF-1 female mice (Charles River) were used. Daily subcutaneous administration of clindamycin (1.4 mg/d) for five days was used to disrupt the intestinal microbiota to induce VRE infection. Three days after the end of clindamycin administration, gastric inoculation of 250 μl of an overnight culture of VRE in BHI broth was used to infect the mice. Approximately 10^8 viable VRE was administered to the mice. Since the beginning of the antibiotic therapy, all groups of LAB-treated mice received once daily […] of 10^10 CFU/ml of Lc. lactis subsp. lactis MM19, P. acidilactici MM33 or P. acidilactici MM33A previously washed twice in sterile PBS. The mice received the LAB until the eighth day after the infection. Bacitracin (Sigma) antibiotic was administrated orally once daily during three days following the mice infection with VRE as 600 units/d diluted in […] of sterile PBS. This treatment was then discontinued and replaced by PBS. Stool samples were collected before the antibiotic administration and 1, 3, 6, 8 and 12 days after the VRE infection. Fecal concentrations of total culturable VRE were analyzed using selective media. This experiment was repeated twice using a total of eight mice per experimental group.

Data set [2] deals with Lactobacillus rhamnosus GG (ATCC 53103). As to the kind of experiment: Antibiotic MIC plates (resistance profile). Type of data set: cell-based. Conditions: Lacticaseibacillus rhamnosus, ATCC53103. The source says: (§1) The protocol was adapted from Delgado et al. (2005). Minimum Inhibitory Concentration (MIC) Plate (# GPN3F) and Anaerobe MIC Plate (# AN02B) were used to determine the antibiotic sensitivity and resistance profile of MM19 and MM33 according to the instructions of the manufacturer (Trek Diagnostic Systems; Nova Century, Burlington, ON, Canada).
(§2) Lactococcus lactis subsp. lactis MM19, Pediococcus acidilactici MM33 and Lactobacillus rhamnosus GG (ATCC 53103) from frozen glycerol stock were first inoculated in Lactobacilli MRS and incubated at 37° C. for 18 h. 100 μl of this culture were further incubated under the same conditions. This second culture was then inoculated on a MRS agar plate and incubated at 37° C. for 48 h under anaerobic conditions using GasPak Plus system (BD BBL, Sparks, Md., USA).

Data set [3] concerns Lactococcus lactis subsp. lactis MM19. As to the kind of experiment: Antibiotic MIC plates (resistance profile). Format: cell-based. Conditions: Lactococcus lactis.
Description: as §1, §2

Data set [4] has as its system Pediococcus acidilactici MM33. Put plainly: Antibiotic MIC plates (resistance profile). Format: cell-based. Conditions: Pediococcus acidilactici, MM33.
Description: as §1, §2

The subject of data set [5] is vancomycin-resistant Enterococcus faecium (VRE) clinical isolate. Put plainly: Agar well-diffusion assay against VRE clinical isolate. Type of data set: cell-based. The following applies: all concentrations evaluated between 0 to 800 μg/ml; data not shown. As for the experimental part:
A clinical isolate of vancomycin-resistant Enterococcus faecium (VRE) was provided by the Centre Hospitalier de l'Université de Montréal microbiology laboratory (CHUM; Montreal, QC, Canada). […] The E. faecium strain was maintained in brain-heart infusion (BHI; Difco) for E. faecium containing 10% glycerol (w/v).
An agar well-diffusion assay was performed to verify the antimicrobial capacity of the neutralized cell-free supernatant (CFS) against a VRE clinical isolate. CFS was obtained as described before. A volume of 30 ml of cooled (45° C.) sterile BHI agar, containing 0.75% agar, was inoculated with 10^7 colony-forming units (CFU)/ml of VRE, poured into a […] standard Petri dishes and allowed to solidify for 30 minutes at room temperature. Wells of 6 mm in diameter were cut-out and […] of antimicrobial agent were placed into each well. All plates were then placed at 4° C. for 30 minutes, incubated at 37° C. for 24 h and examined for inhibition zones. Inhibition was scored positive if the width of the clearing zone around the well was 0.5 mm. Antibiotics were also evaluated with this method to ascertain the resistance of the VRE strain. Vancomycin and clindamycin (Sigma-Aldrich, Oakville, ON, Canada) were used in concentrations ranging from 0 to 800 μg/ml. […]

The subject of data set [6] is L. monocytogenes HPB 2812 serotype ½a. As to the kind of experiment: Inhibitory activity of purified pediocin on growth in broth. Type of data set: cell-based, Listeria monocytogenes. Conditions: for Viable counts: from 9.14. As for the experimental part: Different amounts of purified bacteriocin (0 to 800 AU/ml) were added to cultures of L. monocytogenes HPB 2812 serotype ½a in early exponential phase (grown for 6 h) and incubated at 37° C. Bacterial growth was monitored by measuring the bacterial population in a 1 ml sample taken every 2 h of incubation. These samples were serially diluted ten-fold in peptone water (0.1% w/v), pour-plated in BHI agar and then incubated at 37° C. for 24 h. Colonies were counted using Darkfield Quebec Colony Counter (American Optical, Scientific instrument division, Keene, Ohio, USA).

As to `CC[C@H](C)[C@H](N)C1=N[C@H](C(=O)N[C@@H](CC(C)C)C(=O)N[C@H](CCC(=O)O)C(=O)N[C@H](C(=O)N[C@H]2CCCCNC(=O)[C@H](CC(N)=O)NC(=O)[C@@H](CC(=O)O)NC(=O)[C@H](Cc3cnc[nH]3)NC(=O)[C@@H](Cc3ccccc3)NC(=O)[C@H]([C@@H](C)CC)NC(=O)[C@@H](CCCN)NC2=O)[C@@H](C)CC)CS1` [Bacitracin] ({Ileψ(thiazoline)Cys}-L[dE]IK[dOrn]I[dF]H[dD]N; lactam 4-C), the “Mice colonized with VRE (%)” value was 0% in data set [1] (0 days after VRE infection); 100% in data set [1] (1 day after VRE infection); 0% in data set [1] (3 days after VRE infection); 100% in data set [1] (6 days after VRE infection); 100% in data set [1] (8 days after VRE infection); 100% in data set [1] (12 days after VRE infection). In data set [1] (after the treatment was discontinued), the “VRE population (in words)” value was “reappeared”. Moreover, the “Level of VRE in feces (in words)” value in data set [1] (day 3, 600 units/d orally for three days after infection) is listed as “undetectable level”.
The term MIC denotes the lowest concentration found to suppress growth. Consider `CN[C@H](CC(C)C)C(=O)N[C@H]1C(=O)N[C@@H](CC(N)=O)C(=O)N[C@H]2C(=O)N[C@H]3C(=O)N[C@H](C(=O)N[C@H](C(=O)O)c4cc(O)cc(O)c4-c4cc3ccc4O)[C@H](O)c3ccc(c(Cl)c3)Oc3cc2cc(c3O[C@@H]2O[C@H](CO)[C@@H](O)[C@H](O)[C@H]2O[C@H]2C[C@](C)(N)[C@H](O)[C@H](C)O2)Oc2ccc(cc2Cl)[C@H]1O` [VAN, Vancomycin], for which the results for the MIC in data set [2], in data set [3] and in data set [4] were over 128 µg/mL, under 1 µg/mL and over 128 µg/mL, respectively. In addition, the “Sensitivity of the VRE clinical isolate (in words)” value in data set [5] was “resistant”.
For the compound “pediocin (KYYGNGVTCGKHSCSVDWGKATTCIINNGAMAWATGGHQGNHKC; Pediococcus acidilactici MM33)”, in data set [6] (at least 200 AU ml^−1 added into the culture medium), the “Decrease in viable CFU ml^−1” value is recorded as “more than 99.9%”. Moreover, the Viable counts is 8.7 log CFU ml^−1 in data set [6] (two hours after addition of 100 AU ml^−1), 6.0 log CFU ml^−1 in data set [6] (two hours after addition of 200 AU ml^−1), 4.36 log CFU ml^−1 in data set [6] (two hours after addition of 400 AU ml^−1) and 2.81 log CFU ml^−1 in data set [6] (two hours after addition of 800 AU ml^−1).

The values above are taken from patent US20110236359A1 (priority 2007, published 2011).
